Row | melting point | Compound
1 | 181 to 182 °C | CC(C)(C)OC(=O)N1CCC(Cn2cc(S(=O)(=O)c3ccccc3)c3ccccc32)CC1
2 | 118 to 120 °C | O=C1c2ccccc2CCc2cccnc21
3 | 170 °C | CC(=O)Nc1ccccc1N(CC(=O)OC(C)(C)C)C(=O)CN1C(=O)c2ccccc2C1=O
4 | 148 to 150 °C | CSC1=Nc2ccccc2Cn2cccc21
5 | 196 to 198 °C | COc1ccccc1S(=O)(=O)c1ccc2c(c1)[C@@H](N1CCCC1=O)[C@H](O)C(C)(C)O2 (relative stereo)
6 | 266 to 267 °C | COc1ccc(Cc2n[nH]c3c2c(=O)n(-c2ccccc2)c2ncccc32)c(OC)c1
7 | 98 to 99 °C | COc1ccc(CC(=O)NOCc2ccccc2)cc1
8 | 242 to 244 °C | CCNc1cc2ncnc(N3CCN(C(=O)Nc4ccc(Oc5ccccc5)cc4)CC3)c2cc1[N+](=O)[O-]
9 | 163 to 165 °C | O=C(CCn1c2ccccc2c2ccccc21)OCCn1c2ccccc2c2ccccc21
10 | 207 °C | Cc1ccc(C2Sc3ccccc3NC(=O)C2COS(C)(=O)=O)cc1 (configuration not stated)
11 | 232 to 234 °C | COc1ccc(C2Sc3c(ccc4ccccc34)NC(=O)C2O)cc1 (configuration not stated)
12 | 214 to 215 °C | O=C1c2ccccc2C(=O)N1CC(=O)N1c2ccccc2N(Cc2ccccc2)C(=O)C2(Cc3ccccc3)CCCC12 (configuration not stated)
13 | 202 to 204 °C | O=C(NC(Cc1ccc(OCc2ccccc2)cc1)C(=O)O)c1cc2ccc(-c3ccc(Cl)cc3)cc2[nH]1 (configuration not stated)
14 | 224 to 226 °C | Cc1ccc(-n2c(-c3cc(-c4ccc(Cl)cc4)c(N4CCOCC4)s3)nc3ccccc3c2=O)cc1
15 | 176 to 181 °C | Cn1cc(-c2ccccc2)c(=O)c(-c2cccc(S(C)(=O)=O)c2)c1
16 | 219 to 220 °C | COc1ccc(/C=C/C(=O)c2ccc(C(=O)O)cc2)cc1-c1cccs1
17 | 79 to 80 °C | CCOC(=O)c1cc(Cc2ccccc2)c(O)c2ccccc12

Row | melting point | Compound
18 | 250 to 252 °C | CC(=O)N1CCCCNC1=NC(c1ccccc1)c1ccccc1
19 | 270 °C | CC(C)c1ccc2[nH]c(=O)c(C(=O)c3ccccc3)c(O)c2c1
20 | 281 to 283 °C | O=c1cc(-c2ccccc2Cl)[nH]c(=O)n1-c1ccc(C(F)(F)F)cn1
21 | 161 to 164 °C | COc1cc(OC)nc(NC(=O)NS(=O)(=O)Oc2ccccc2-c2nnco2)n1
22 | 151 to 153 °C | CC(C)c1cccc(C(C)C)c1NC(=O)C1c2ccccc2OCc2nc(Br)ccc21 (configuration not stated)
23 | 242 °C | N=C(N)NC(=O)c1cn(-c2ccc3ccccc3n2)c2ncccc12
24 | 140 to 142 °C | O=C1Cc2cccc(OCc3ccccc3)c2N1
25 | 224 to 226 °C | O=C1OCc2c1cc1ccc3c(c1c2-c1ccc2ccccc2c1)OCO3
26 | 157 °C | CN1CCC(Nc2ncc3ncnc(Nc4ccc(Oc5ccccc5)cc4)c3n2)CC1
27 | 231 °C | NS(=O)(=O)c1cccc(NC(=O)c2cnn3c(C(F)F)cc(-c4ccc(OC(F)(F)F)cc4)nc23)c1
28 | 234 to 236 °C | O=C(Nc1ccc(-c2ccccc2)cc1C(=O)O)OCc1ccc(-c2ccccc2)cc1
29 | 90 to 92 °C | Nc1cc2c(cc1C(=O)c1ccccc1Cl)CCC2
30 | 111 to 113 °C | COc1ccc(OC)c(C(=O)c2ccc(OCc3ccccc3)cc2)c1
31 | 183 to 184 °C | COC(c1ccccc1)c1nc2c(N)nc3ccccc3c2n1CC(C)C (configuration not stated)
32 | 128 to 131 °C | O=C(O)[C@H](CCc1ccccc1)NS(=O)(=O)c1ccc2c(c1)Cc1ccccc1-2
33 | 157 to 158 °C | CC1=C(C(=O)c2ccccc2F)C(=O)C2C=CC=CC2C1=O (configuration not stated)
34 | 168 to 169 °C | COc1cc2c(cc1OC)C(Cc1ccncc1)(Cc1ccncc1)CN=C2c1ccccc1

The next lines start with the compound.

Row | Compound | melting point
35 | CN(C(=O)C(F)(F)F)c1ccc2[nH]ncc2c1 | 172 to 174 °C
36 | CC(=CC(=O)c1ccncc1)N(C)C | 88 to 89 °C
37 | N=C(N)NN=Cc1cccc(Cl)c1I | 231 to 232 °C
38 | CCOC(=O)C1CCN(c2nnc(NCc3ccc4c(c3)OCO4)c3ccncc23)CC1 | 135 to 136 °C
39 | Nc1nc(O)c2c(n1)NCC(CCc1cc(C(=O)O)c[nH]1)C2 (configuration not stated) | > 260 °C
40 | CC1COCc2nc3c(N)nc4cc(C=CC(=O)N5CCOCC5)ccc4c3n21 (configuration not stated) | > 250 °C
41 | CC(C)Sc1sc(-c2cc[nH]n2)c2c1C(=O)CC(C)(C)C2 | 195 to 198 °C
42 | CN(C)CC(=O)Nc1ccccc1N | 119 to 121 °C
43 | CSCCCC1(C(=S)N[C@@H](Cc2ccc(NC(=O)c3c(Cl)cccc3Cl)cc2)C(=O)O)CCC1 | 186 to 188 °C
44 | Oc1ccc(Oc2ncc(C(F)(F)F)cc2Cl)cc1 | 70 to 72 °C
45 | CCOC(=O)C1C=Nc2c(ccc(F)c2F)C1=O (configuration not stated) | 270 °C
46 | CN(C)c1cc2c(cc1C(F)(F)F)NC(=O)CC(c1ccnc(C#N)c1)=N2 | 248 °C
47 | CC(C)(C(=O)O)c1ccc(CCl)cc1 | 121 to 122 °C
48 | O=C1Nc2cc(Cl)ccc2C1c1ncnc2nn(C3CCCCC3)cc12 (configuration not stated) | 299 to 303 °C
49 | CC(=O)N1CCc2ccc(Cl)c(S)c2C1 | 92 to 112 °C
50 | CCOC(=O)c1cnn(-c2cccc(Cl)n2)c1S(N)(=O)=O | 125 to 128 °C
51 | CCSc1ncc(Oc2ccc(Cl)c(Cl)c2)cc1C#N | 80 to 81 °C
52 | Cc1cc2c(cc1NC(=O)c1cccc(I)c1C(=O)NC(C)C)OC(F)(F)C2(O)C(F)(F)F (configuration not stated) | 144 to 146 °C
53 | Fc1ccc(-c2c[nH]cn2)cc1 | 130 to 132 °C
54 | C=CCOC(=O)c1c(C)nc2c(cnn2CCCC#N)c1N | 86 °C
55 | Cc1cccc(C(=O)C2CCCc3cccnc32)c1 (configuration not stated) | 211 to 213 °C

Row | Compound | melting point
56 | O=C1c2c(Br)cccc2-n2cnc(C(=O)n3ccnc3)c2[C@@H]2CCCN12 | 215 to 217 °C
57 | Cc1c(SCCCN2CCN(Cc3ccc(Cl)s3)CC2)ccnc1CS(=O)c1nc2ccccc2[nH]1 (configuration not stated) | 54 to 58 °C
58 | CCOCc1nc2cnc3cc(Br)ccc3c2n1CCN1CCN(C(=O)OC(C)(C)C)CC1 | 140 to 143 °C
59 | CNCCCN1CCc2cc(OC)c(OC)cc2CC1=O | 68 to 70 °C
60 | O=C(O)c1cc([N+](=O)[O-])ccc1C1SCCCS1 | 192 to 194 °C
61 | CC(=NC(C#N)=C(N)C#N)c1cccs1 | 177 to 179 °C
62 | CC(=O)OC(CCCN1CCN(c2ncc(F)cn2)CC1)c1ccc(F)cc1 (configuration not stated) | 76 to 77 °C
63 | COc1cccc(C(=O)NCCCCCCCNC(=O)c2cccc(OC)c2)c1 | 109 to 112 °C
64 | Cn1ncc2c1-c1c(Oc3ccc4c(c3)OCO4)sc(C(=O)NC(C)(C)C)c1CC2 | 171 to 179 °C
65 | CCCC[C@H](NC(=O)C(CS)C(F)(F)F)C(=O)O (some centres not stated) | 96 to 98 °C
66 | CCCc1nn(-c2ccc(C(F)(F)F)cn2)cc1CCCOc1cccc(CC(=O)O)c1 | 106 to 107 °C
67 | O=C1CC(C(F)(F)F)CC(=O)N1c1cc(OCSc2ccccc2)c(Cl)cc1F | 108 to 110 °C
68 | CN(C)c1ccc(/C=C/c2c(Cl)cccc2Cl)cc1 | 96 to 97 °C
69 | CN(C)S(=O)(=O)c1ccc2c(c1)C=C(C(=O)O)C(C(F)(F)F)O2 (configuration not stated) | 201 to 202 °C
70 | CC1(C)CCC(C)(C)c2cc(C=C=Cc3ccc(C(=O)O)cc3)ccc21 | 227 to 228 °C
71 | CC(C)c1cc(-c2ccc3c(c2)OCO3)[nH]c(=O)c1C#N | 266 to 268 °C
72 | COc1ccc(C(=O)O)cc1OC1CC=CC1 | 171 to 173 °C
73 | O=C(c1cc(C(F)(F)F)nc2c(Cl)cc(Cl)cc12)c1cc(C(F)(F)F)nc2c(Cl)cc(Cl)cc12 | 193 to 194 °C
74 | O=C(N[C@H](Cc1ccc(C(F)(F)F)cc1)[C@@H](O)c1cccc2ccccc12)C1CCCCC1 (racemic) | 156 to 157 °C
75 | COCC(=O)Nc1cccc2c1C1(COc3cc4c(cc31)OCCO4)C(=O)N2C (configuration not stated) | 237 to 239 °C
76 | Cc1c(C)c2c(c(C)c1NC(=O)CC(C)(C)C)C(c1ccc(C(C)C)cc1)C1(CCCC1)O2 (configuration not stated) | 209 to 210 °C

Row | Compound | melting point
77 | COc1cccc(CCc2c(CC#N)ccc(OC)c2OC)c1 | 98 to 100 °C
78 | CCOC(=O)C(O[Si](C)(C)C)C(O[Si](C)(C)C)c1cc2c(cc1[N+](=O)[O-])OCO2 (configuration not stated) | 73.6 to 79.1 °C
79 | COC(=O)Nc1cc(Oc2ccc3c(C(=O)Nc4ccc(CN5CCNCC5)c(C(F)(F)F)c4)cccc3c2)ncn1 | 138 to 148 °C
80 | CC(C(=O)O)C1CCC(C)(CCC2(C)C(C)CCC3(C)C(C)(C)CCCC23O)OO1 (configuration not stated) | 157 to 159 °C
81 | COC(=O)[C@H]1Cc2ccc(C)cc2C(=O)[C@H](C)S1 (relative stereo) | 99 to 100 °C
82 | COC1=CC=C(CN2CCN(CCCC(=O)c3ccc(F)cc3)CC2)C(F)C1=NNS(=O)(=O)c1ccc(C)cc1 (configuration not stated) | 66 to 67 °C
83 | CCc1cn(C2CC(O)C(CCC(=O)C(C)Oc3ccc(Cl)cc3Cl)O2)c(=O)[nH]c1=O (mixture of isomers) | 157 to 159 °C
84 | COC(=O)c1cc(OC(C)C)nn1Cc1ccc(Cl)cc1Cl | 89 to 90 °C
85 | CNC(=O)c1sc(C(C)(C)C)cc1NC(=O)Nc1ccc(F)cc1 | 203 to 204 °C
86 | CCCc1nc(Sc2ccc(O)cc2)c(C=O)n1Cc1cc2c(cc1Cl)OCO2 | 242 °C
87 | CC(Br)C(=O)c1ccc(OC(=O)C(C)(C)C)c(OC(=O)C(C)(C)C)c1 (configuration not stated) | 58 to 60 °C
88 | Cc1cc(I)cc2[nH]c(=O)oc12 | 248 to 250 °C
89 | O=c1nc(N2CCCc3c(Br)cccc32)sc2ncccc12 | 173 to 174 °C
90 | COc1ccc(CSC2=NC(c3cccc([N+](=O)[O-])c3)C(C(=O)O)=C(C)N2)cc1 (configuration not stated) | 90 °C
91 | CCOCC(=O)Nc1nc2ccccc2s1 | 113 to 114 °C
92 | CCC(C(=O)O)N(C(=O)c1cn(-c2ccc(OC)cc2)nc1C)c1ccc(OCC(C)(C)C)c(C#N)c1 (configuration not stated) | 113 to 114 °C
93 | COc1cc(C(F)(F)F)oc(=O)c1 | 61 °C
94 | NC(=O)c1ncccc1CCc1cccc(F)c1 | 102 to 104 °C
95 | CC(=O)Oc1c(C)cc(C)cc1CCc1cc(C)cc(C)c1OC(C)=O | 130 to 131 °C
96 | CCC(C)CNNC(=O)c1cc(N)cc(C(=O)NNCC(C)CC)c1 (configuration not stated) | 162 to 163 °C
97 | CCCCCCCCOc1ccc(-c2ccc(O)cc2)cc1 | 154 °C

Reference: a melting point compilation (Tetko et al.; mined from patent text by program, amines drawn as free bases though some values may be those of a salt)
